Test results reported in patent publication EP4782440A9, “PSMA COMPOUND, AND PHARMACEUTICAL COMPOSITION CONTAINING SAME AND USE THEREOF” (VITSGEN THERAPEUTICS INC., priority 2023, dated 2025).

Test system: LnCaP cells
Experiment: LnCaP cell uptake and internalization
Format: cell-based
Details: Table 4, 177Lu-labelled, 37 °C, 45 min
Description: Table 4. Conditions and results of LnCaP cell uptake
wherein [formula] Table 5. Detailed results of LnCaP cell uptake

Q: `O=C(O)CC[C@H](NC(=O)N[C@@H](CCCCNC(=O)[C@H](Cc1ccc2ccccc2c1)NC(=O)[C@H]1CC[C@H](CNC(=O)CN2CCN(CC(=O)O)CCN(CC(=O)O)CCN(CC(=O)O)CC2)CC1)C(=O)O)C(=O)O` [VWT001500, PSMA-617] was tested. Which “Cellular uptake results, internalization rate%” value did it give?
A: The value was 9.57%.

Q: And the “Cellular uptake results, uptake rate%” value?
A: Its value is 1.01%.
